# Counter-ions that a name gives are not always drawn.
# Columns and labels:
# [1] = target: T1, human dopamine D2A receptors (Homo sapiens, UniProt P14416); assay: D2 binding test (low affinity state, 125I-spiperone); conditions: ratio Ki(D2)/Ki(D3)
# T1 construct: expressed in transfected cells; host or cells: HEK-293
# Description: All the media contained 100 units of penicillin […] and 100 μg/ml of streptomycin/ml. The cells were maintained at 37° C. in a moist atmosphere containing 5% CO2.
# The cells were prepared for the binding studies by trypsinizing them (0.05% solution of trypsin) at room temperature for 3-5 minutes. After that, the cells were centrifuged at 250 g for 10 minutes and treated with lysis buffer (5 mM Tris-HCl, 10% glycerol, pH 7.4) at 4° C. for 30 minutes. After centrifuging at 250 g for 10 minutes, the residue was stored at −20° C. until used.
# Low affinity state dopamine D2 receptor using ^125I-spiperone (81 TBq/mmol, Du Pont de Nemours, Dreieich)
# The test mixtures (1 ml) consisted of 1×10^5 cells in incubation buffer (50 mM Tris, 120 mM NaCl, 5 mM KCl, 2 mM MgCl2 and 2 mM CaCl2, pH 7.4 with HCl) and […] ^125I-spiperone (total binding) or additionally 1 μM haloperidol (nonspecific binding) or test substance.
# After the test mixtures had been incubated at 25° C. for 60 minutes, they were filtered through GM/B glass filters (Whatman, England) on a Skatron cell harvester (from Zinsser, Frankfurt), and the filters were washed with ice-cold 50 mM Tris-HCl buffer, pH 7.4. The radioactivity which had collected on the filters was quantified using a Packard 2200 CA liquid scintillation counter.
# The results were evaluated as described in a).
# The Ki values were determined by way of nonlinear regression analysis using the LIGAND program or by converting the IC50 values using the Cheng and Prusoff formula.
# Cloned human D3-receptor = target: T2, Cloned human D3-receptor (Homo sapiens, UniProt P35462); assay: D3 binding test (125iodosulpiride displacement); conditions: negative logarithm of Ki (D3) [M]
# T2 construct: host or cells: CCL 1,3 mouse fibroblasts
# Description: Cloned human D3-receptor-expressing CCL 1,3 mouse fibroblasts, obtainable from Res. Biochemicals Internat. One Strathmore Rd., Natick, Mass. 01760-2418 USA, were used for the binding studies.
# The D3-expressing cells were multiplied in RPMI-1640 containing 10% fetal calf serum (GIBCO No. 041-32400 N); 100 U of penicillin/ml and 0.2% streptomycin (GIBO BRL, Gaithersburg, Md., USA). After 48 h, the cells were washed with PBS and incubated for 5 min with 0.05% trypsin-containing PBS. After that, the mixture was neutralized with medium and the cells were collected by centrifuging at 300 g. In order to lyse the cells, the pellet was washed briefly with lysis buffer (5 mM Tris-HCl, pH 7.4, containing 10% glycerol) and after that incubated, at 4° C. for 30 min, at a concentration of 10^7 cells/ml of lysis buffer. The cells were centrifuged at 200 g for 10 min and the pellet was stored in liquid nitrogen.
# For the D3-receptor binding test, the membranes were suspended in incubation buffer (50 mM Tris-HCl, pH 7.4, containing 120 mM NaCl, 5 mM KCl, 2 mM CaCl2, 2 mM MgCl2, 10 μM quinolinol, 0.1% ascorbic acid and 0.1% BSA), at a concentration of approx. 10^6 cells/250 μl of test mixture, and incubated at 30° C. […] 0.1 nM ^125iodosulpiride in the presence and absence of the test substance. The nonspecific binding was determined using 10^−6 M spiperone.
# After 60 min, the free radioligand and the bound radioligand were separated by filtering through GF/B glass fiber filters (Whatman, England) on a Skatron cell harvester (Skatron, Lier, Norway), and the filters were washed with ice-cold Tris-HCl buffer, pH-7.4. The radioactivity which had collected on the filters was quantified using a Packard 2200 CA liquid scintillation counter.
# The Ki values were determined by means of nonlinear regression analysis using the LIGAND program.
# T1 sequence (P14416 whole entry): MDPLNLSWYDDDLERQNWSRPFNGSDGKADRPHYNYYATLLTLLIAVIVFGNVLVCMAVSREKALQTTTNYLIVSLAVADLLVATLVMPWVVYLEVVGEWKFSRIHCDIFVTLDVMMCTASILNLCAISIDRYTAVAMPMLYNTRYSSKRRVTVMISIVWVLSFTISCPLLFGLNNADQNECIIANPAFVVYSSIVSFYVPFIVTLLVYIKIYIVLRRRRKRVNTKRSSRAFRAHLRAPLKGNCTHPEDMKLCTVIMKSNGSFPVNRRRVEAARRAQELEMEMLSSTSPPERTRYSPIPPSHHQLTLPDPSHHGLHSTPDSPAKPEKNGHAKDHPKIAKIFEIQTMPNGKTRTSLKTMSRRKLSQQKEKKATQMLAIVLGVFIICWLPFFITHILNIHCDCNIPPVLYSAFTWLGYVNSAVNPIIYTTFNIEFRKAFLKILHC
# T2 sequence (P35462 whole entry): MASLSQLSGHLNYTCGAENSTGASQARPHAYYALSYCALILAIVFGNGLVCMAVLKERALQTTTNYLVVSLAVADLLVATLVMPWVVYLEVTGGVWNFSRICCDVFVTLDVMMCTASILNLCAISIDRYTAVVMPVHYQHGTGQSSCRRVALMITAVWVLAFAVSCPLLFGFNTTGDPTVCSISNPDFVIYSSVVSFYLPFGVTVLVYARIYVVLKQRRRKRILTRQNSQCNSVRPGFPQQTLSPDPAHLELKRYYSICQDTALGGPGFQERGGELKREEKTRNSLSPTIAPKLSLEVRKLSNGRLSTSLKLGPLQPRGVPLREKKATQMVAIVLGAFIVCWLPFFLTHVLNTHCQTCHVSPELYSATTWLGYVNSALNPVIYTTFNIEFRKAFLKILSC
melting point,Molecule,Selectivity (Ki(D2)/Ki(D3)) [1],also measured
88 °C (dec.),Cl.Cn1c(SCCCNCC2CCc3cc(Br)ccc3C2)nnc1-c1ccccc1 (stereo not drawn),,
123 °C,Cc1ncsc1-c1nnc(SCCCNCCCC2CCc3ccc(F)cc32)n1C.Cl (stereo not drawn),,
201 to 202 °C,COc1cc2c(cc1OC)C(NCCCSc1nnc(-c3ccccc3)n1C)CC2.Cl (stereo not drawn),,
,"3-[3-(6-Methyl-1,2,3,4-tetrahydronaphth-2-ylmethylamino)propylmercapto]-4-methyl-5-phenyl-1,2,4(4H)-triazole [Example 14]",46,pKi (D3) (Cloned human D3-receptor): 7.82
,"3-[3-(N-(Indan-2-yl)propylamino)propylmercapto]-4-methyl-5-phenyl-1,2,4(4H)-triazole Fumarate [Example 1]",71,pKi (D3) (Cloned human D3-receptor): 9.05
92 to 95 °C,"COc1ccc2c(c1)CC(CCCNCCCSc1nnc(-c3ccccc3)n1C)CC2 (stereo not drawn) (as salt: HCl) [Example 18, 3-[3-(N-(7-Methoxy-1,2,3,4-tetrahydronaphth-2-yl)propylamino)propylmercapto]-4-methyl-5-phenyl-1,2,4(4H)-triazole]",,
135 to 139 °C,"CCOC(=O)c1nnc(SCCCNC2Cc3ccccc3C2)n1C (as salt: HCl) [Example 25, Ethyl-5-{[3-(indan-2-ylamino)propyl]mercapto}-4-methyl-1,2,4(4H)-triazole-3-carboxylate]",,
69 to 73 °C,"Cc1ccc2c(c1)CCC(NCCCSc1nnc(-c3ccccc3)n1C)C2 (stereo not drawn) [Example 4, 3-[3-(6-Methyl-1,2,3,4-tetrahydronaphth-2-ylamino)propylmercapto]-4-methyl-5-phenyl-1,2,4(4H)-triazole]",,
,"CCCN(CCCSc1nnc(-c2scnc2C)n1C)C1CCc2ccc(OC)cc2C1 (stereo not drawn) [Example 26, 3-[3-(N-(7-Methoxy-1,2,3,4-tetrahydronaphth-2-yl)-propylamino)propylmercapto]-4-methyl-5-(4-methyl-1,3-thiazol-5-yl)-1,2,4(4H)-triazole]",157,Ki (Cloned human D3-receptor; read-out: pKi (D3) (converted)): 8.71e-09 M

# Source: patent US6579892B1, “Triazole compounds with dopamine-D3-receptor affinity” (Abbott Laboratories, priority 1999, dated 2003)
